From patent US9695155B2, “Herbicidal substituted pyrimidinyloxy benzene compounds” (E. I. DU PONT DE NEMOURS AND COMPANY, priority 2013, dated 2017)

Assays:
wild oat = test: Test C postemergence; type: in vivo, Avena fatua; conditions: Avena fatua, post-emergence
Procedure, shortened: (§1)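 Greenhouse herbicide screen. Pre: seeded loam/sand, sprayed at planting. Post: 1–4 leaf plants (2–18 cm) in peat-based mix. Formulation: solvent mixture + surfactant, non-phytotoxic. Readout: visual % control vs untreated, 13–15 d; dash = not tested.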

yellow nutsedge [1] = test: Test C preemergence; type: in vivo, Cyperus esculentus; conditions: Cyperus, pre-emergence, preemergence, scale 0 (no effect) to 100 (complete control), read-out: Nutsedge, Yellow plant response rating
Procedure, shortened: as §1

galium = test: Test C preemergence; type: in vivo, Galium aparine; conditions: Galium, pre-emergence
Procedure, shortened: as §1

corn = test: Test C preemergence; type: in vivo, Zea mays; conditions: Zea mays, pre-emergence, preemergence, scale 0 (no effect) to 100 (complete control), read-out: Corn plant response rating
Procedure, shortened: as §1

morningglory [2] = test: Test C preemergence; type: in vivo, Ipomoea coccinea; conditions: Ipomoea, pre-emergence
Procedure, shortened: as §1

blackgrass = test: Test C postemergence; type: in vivo, Alopecurus myosuroides; conditions: Alopecurus myosuroides, post-emergence
Procedure, shortened: as §1

kochia = test: Test C postemergence; type: in vivo, Kochia scoparia; conditions: Bassia scoparia, post-emergence
Procedure, shortened: as §1

rice = test: Test B flooded paddy test; type: in vivo, Oryza sativa; conditions: Oryza sativa; Flood, 250 g ai/ha; 0 to 100 scale where 0 is no effect and 100 is complete control; read-out: Plant response rating, Rice
Procedure, shortened: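 Visual ratings on a 0 to 100 scale, where 100 means complete control, compared treated plants with controls after 13 to 15 days in a greenhouse. Treatment went into paddy water 3 cm deep over the soil, applied to plants at the 2-leaf stage.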

morningglory [3] = test: Test C postemergence; type: in vivo, Ipomoea coccinea; conditions: Ipomoea, post-emergence
Procedure, shortened: as §1

yellow nutsedge [4] = test: Test C postemergence; type: in vivo, Cyperus esculentus; conditions: Cyperus, post-emergence
Procedure, shortened: as §1

oilseed rape = test: Test C preemergence; type: in vivo, Brassica napus; conditions: Brassica napus, pre-emergence
Procedure, shortened: as §1

velvetleaf = test: Test A postemergence; type: in vivo, Abutilon theophrasti; conditions: Abutilon theophrasti, post-emergence, 240 h
Procedure, shortened: (§2)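 Injury scores run from 0, no effect, to 100, complete control, judged by eye against untreated plants roughly 10 days after treatment. Chemicals carried a surfactant in a non-phytotoxic solvent and went onto loam–sand soil preemergence or onto one- to two-leaf seedlings postemergence.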

barnyardgrass = test: Test A preemergence; type: in vivo, Echinochloa crus-galli; conditions: Echinochloa crus-galli, pre-emergence, 240 h
Procedure, shortened: as §2

SMILES: N#Cc1cccc(Oc2ncc(Br)cn2)c1-n1cc(C(F)(F)F)cn1 [Compound 59, 3-[(5-bromo-2-pyrimidinyl)oxy]-2-[4-(trifluoromethyl)-1H-pyrazol-1-yl]benzonitrile]
- pest or weed control at 125 g/ha (wild oat; 125 g ai/ha, postemergence, read-out: Plant response rating (0 to 100), Oat, Wild): 40%
- pest or weed control at 250 g/ha (wild oat; 250 g ai/ha, postemergence, read-out: Plant response rating (0 to 100), Oat, Wild): 40%
- pest or weed control at 31 g/ha (wild oat; Postemergence, 31 g ai/ha, scale 0 to 100 (0 no effect, 100 complete control), 13 to 15 days, read-out: Plant response rating, Oat, Wild): 25%
- pest or weed control at 62 g/ha (wild oat; Postemergence, 62 g ai/ha, scale 0 to 100 (0 no effect, 100 complete control), read-out: Plant response rating, Oat, Wild): 25%
- pest or weed control at 62 g/ha (yellow nutsedge [1]; 62 g ai/ha): 65%
- pest or weed control at 125 g/ha (yellow nutsedge [1]; 125 g ai/ha): 85%
- pest or weed control at 250 g/ha (yellow nutsedge [1]; 250 g ai/ha): 90%
- pest or weed control at 62 g/ha (galium; 62 g ai/ha, preemergence, scale 0 (no effect) to 100 (complete control), read-out: Galium plant response rating): 100%
- pest or weed control at 125 g/ha (galium; 125 g ai/ha, preemergence, scale 0 (no effect) to 100 (complete control), read-out: Galium plant response rating): 100%
- pest or weed control at 250 g/ha (galium; 250 g ai/ha, preemergence, scale 0 (no effect) to 100 (complete control), read-out: Galium plant response rating): 100%
- pest or weed control at 31 g/ha (galium; Preemergence, 31 g ai/ha, scale 0 to 100, 0 no effect, 100 complete control, read-out: Plant response rating, Galium): 100%
- plant injury at 62 g/ha (corn; 62 g ai/ha): 55%
- plant injury at 125 g/ha (corn; 125 g ai/ha): 75%
- plant injury at 250 g/ha (corn; 250 g ai/ha): 90%
- pest or weed control at 62 g/ha (morningglory [2]; 62 g ai/ha, preemergence, scale 0 (no effect) to 100 (complete control), read-out: Morningglory plant response rating): 100%
- pest or weed control at 125 g/ha (morningglory [2]; 125 g ai/ha, preemergence, scale 0 (no effect) to 100 (complete control), read-out: Morningglory plant response rating): 100%
- pest or weed control at 250 g/ha (morningglory [2]; 250 g ai/ha, preemergence, scale 0 (no effect) to 100 (complete control), read-out: Morningglory plant response rating): 100%
- pest or weed control at 31 g/ha (morningglory [2]; Preemergence, 31 g ai/ha, scale 0 to 100, 0 no effect, 100 complete control, read-out: Plant response rating, Morningglory): 95%
- pest or weed control at 125 g/ha (blackgrass; 125 g ai/ha, postemergence, read-out: Plant response rating (0 to 100), Blackgrass): 25%
- pest or weed control at 250 g/ha (blackgrass; 250 g ai/ha, postemergence, read-out: Plant response rating (0 to 100), Blackgrass): 40%
- pest or weed control at 31 g/ha (blackgrass; Postemergence, 31 g ai/ha, scale 0 to 100 (0 no effect, 100 complete control), 13 to 15 days, read-out: Plant response rating, Blackgrass): 5%
- pest or weed control at 62 g/ha (blackgrass; Postemergence, 62 g ai/ha, scale 0 to 100 (0 no effect, 100 complete control), read-out: Plant response rating, Blackgrass): 10%
- pest or weed control at 125 g/ha (kochia; 125 g ai/ha, postemergence, read-out: Plant response rating (0 to 100), Kochia): 100%
- pest or weed control at 250 g/ha (kochia; 250 g ai/ha, postemergence, read-out: Plant response rating (0 to 100), Kochia): 100%
- pest or weed control at 31 g/ha (kochia; Postemergence, 31 g ai/ha, scale 0 to 100 (0 no effect, 100 complete control), 13 to 15 days, read-out: Plant response rating, Kochia): 95%
- pest or weed control at 62 g/ha (kochia; Postemergence, 62 g ai/ha, scale 0 to 100 (0 no effect, 100 complete control), read-out: Plant response rating, Kochia): 100%
- plant injury at 250 g/ha (rice): 20%
- pest or weed control at 125 g/ha (morningglory [3]; 125 g ai/ha, postemergence, read-out: Plant response rating (0 to 100), Morningglory): 95%
- pest or weed control at 250 g/ha (morningglory [3]; 250 g ai/ha, postemergence, read-out: Plant response rating (0 to 100), Morningglory): 95%
- pest or weed control at 31 g/ha (morningglory [3]; Postemergence, 31 g ai/ha, scale 0 to 100 (0 no effect, 100 complete control), 13 to 15 days, read-out: Plant response rating, Morningglory): 80%
- pest or weed control at 62 g/ha (morningglory [3]; Postemergence, 62 g ai/ha, scale 0 to 100 (0 no effect, 100 complete control), read-out: Plant response rating, Morningglory): 85%
- pest or weed control at 125 g/ha (yellow nutsedge [4]; 125 g ai/ha, postemergence, read-out: Plant response rating (0 to 100), Nutsedge, Yellow): 5%
- pest or weed control at 250 g/ha (yellow nutsedge [4]; 250 g ai/ha, postemergence, read-out: Plant response rating (0 to 100), Nutsedge, Yellow): 10%
- pest or weed control at 31 g/ha (yellow nutsedge [4]; Postemergence, 31 g ai/ha, scale 0 to 100 (0 no effect, 100 complete control), 13 to 15 days, read-out: Plant response rating, Nutsedge, Yellow): 0%
- pest or weed control at 62 g/ha (yellow nutsedge [4]; Postemergence, 62 g ai/ha, scale 0 to 100 (0 no effect, 100 complete control), read-out: Plant response rating, Nutsedge, Yellow): 5%
- plant injury at 62 g/ha (oilseed rape; 62 g ai/ha, preemergence, scale 0 (no effect) to 100 (complete control), read-out: Oilseed Rape plant response rating): 100%
- plant injury at 125 g/ha (oilseed rape; 125 g ai/ha, preemergence, scale 0 (no effect) to 100 (complete control), read-out: Oilseed Rape plant response rating): 100%
- plant injury at 250 g/ha (oilseed rape; 250 g ai/ha, preemergence, scale 0 (no effect) to 100 (complete control), read-out: Oilseed Rape plant response rating): 100%
- plant injury at 31 g/ha (oilseed rape; Preemergence, 31 g ai/ha, scale 0 to 100, 0 no effect, 100 complete control, read-out: Plant response rating, Oilseed Rape): 90%
- pest or weed control at 125 g/ha (velvetleaf; 125 g ai/ha, 0 to 100 scale where 0 is no effect and 100 is complete control, read-out: Plant response rating, Velvetleaf): 100%
- pest or weed control at 500 g/ha (velvetleaf; 500 g ai/ha, 0 to 100 scale, 0 no effect, 100 complete control, read-out: Plant response rating Velvetleaf): 100%
- pest or weed control at 125 g/ha (barnyardgrass; 125 g ai/ha, 0 to 100 scale where 0 is no effect and 100 is complete control, read-out: Plant response rating, Barnyardgrass): 80%
- pest or weed control at 500 g/ha (barnyardgrass; 500 g ai/ha, 0 to 100 scale, 0 no effect, 100 complete control, approx. 10 days, read-out: Barnyardgrass plant response rating): 100%
